Patent publication US11040053B2, “Compositions and methods for activating “stimulator of interferon gene”13 dependent signalling” (CHINOOK THERAPEUTICS, INC., priority 2015, dated 2021)
“Also recorded” adds a separate entry of the source.

Experiments:
[1] = molecular target: T1, wild type (WT) STING allele (Homo sapiens, UniProt Q86WV6, H232R); assay: Cytokine transcript induction (qRT-PCR) in STING^WT/WT hPBMCs; format: cell-based; conditions: for relative normalized IFNβ expression, in words: FIGS. 7A-B, 2 hours stimulation, 100 μM to 0.1 μM
T1 construct: one donor was homozygous for the wild type (WT) STING allele; endogenous in cells; host or cells: human PBMCs, donor STING WT/WT
T1 sequence (Q86WV6 whole entry H232R): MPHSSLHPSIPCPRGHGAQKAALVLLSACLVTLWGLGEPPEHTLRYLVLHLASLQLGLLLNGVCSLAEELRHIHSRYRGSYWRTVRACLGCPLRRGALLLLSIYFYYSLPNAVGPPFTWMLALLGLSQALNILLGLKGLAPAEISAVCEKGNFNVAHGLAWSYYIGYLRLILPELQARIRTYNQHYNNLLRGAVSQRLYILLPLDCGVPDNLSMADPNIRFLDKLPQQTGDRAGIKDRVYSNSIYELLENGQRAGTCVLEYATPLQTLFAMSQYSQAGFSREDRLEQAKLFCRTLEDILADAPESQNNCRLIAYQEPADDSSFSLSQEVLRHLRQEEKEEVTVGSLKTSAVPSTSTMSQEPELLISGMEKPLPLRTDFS
Protocol: The induction of type I interferon was measured in human primary blood mononuclear cells (hPBMCs) to evaluate the potency of mono- or di-F-CDN compounds as described herein. hPBMCs from two unique donors were used: one donor was homozygous for the wild type (WT) STING allele (STING^WT/WT) and the other donor was homozygous for the so-called reference (REF) STING allele (STING^REF/REF). The STING genotype of these donors was determined by PCR amplification and sequencing: genomic DNA was isolated from 10^4 hPBMCs using Quick Extract DNA Extraction Solution (Epicentre) and was used to amplify regions of exon 3, 6, and 7 of the human STING gene.
Cells were incubated at 37° C., 5% CO2 with concentrations ranging from 100 μM to 0.1 μM of each CDN. After 2 hours (FIGS. 7 and 8) or 2 hours and 6 hours (FIGS. 9-13) stimulation, cells were harvested by centrifugation and washed once with phosphate-buffered saline. Cellular RNA was isolated using the Aurum Total RNA 96 Kit and cDNA was synthesized using the iScript cDNA Synthesis Kit. Target and reference gene expression was assessed by real-time qRT-PCR using PrimePCR probe assays and the CFX96 gene cycler (all reagents and equipment from BioRad). Normalized IFNβ expression was expressed relative to untreated cells. Target genes included type I interferon (IFNβ), Th1-associated cytokines (IFNγ, IL-12p40) and NF-kB dependent inflammatory cytokines (TNFα, IL-6). Reference genes included GUSB alone (FIGS. 7 and 8) or GUSB and HSP90AB1 (FIGS. 9-13).

[2] = molecular target: T2, hSTING(REF) (Homo sapiens, UniProt Q86WV6); assay: IFN-β luciferase reporter in HEK293T cells stably expressing hSTING(REF), digitonin permeabilization; conditions: FIGS. 6A-B, 0.1 μM to 100 μM and 6.25 μM CDN
Target sequence in this assay (Q86WV6 whole entry): as the sequence (Q86WV6 whole entry H232R) above, with R232H counted along it
Protocol: (§1) 24 hours later, cells were stimulated with native and synthetic CDN derivative molecules using digitonin permeabilization to ensure uniform uptake.
(§2) After 20 min, the stimulation mixtures were removed and 200 ul of DMEM media supplemented with 10% (vol/vol) fetal bovine serum, 1% L-Glutamine, and 1% Penicillin/Streptomycin was added. Cells were incubated an additional 6 hours (37° C., 5% CO2) and then cell lysates were prepared and reporter gene activity measured on a Spectramax M3 luminometer using the Dual-Glo Luciferase Assay System (Promega, catalog #E2920) as described by the manufacturer. IFNβ firefly luciferase reporter gene activity was normalized to TK renilla luciferase gene activity and plotted as fold induction over activity in unstimulated cells (mean+/−s.e.m.).

[3] = molecular target: hSTING(WT) (Homo sapiens, UniProt Q86WV6, H232R); assay: IFN-β luciferase reporter in HEK293T cells stably expressing hSTING(WT), digitonin permeabilization; conditions: FIGS. 5A-B, 0.1 μM to 100 μM and 6.25 μM CDN
Chain of hSTING(WT) (Q86WV6 whole entry H232R): as the sequence (Q86WV6 whole entry H232R) above
Protocol: as §1, §2

[4] = molecular target: T3, HAQ allele hSTING (Homo sapiens, UniProt Q86WV6, G230A/H232R/R293Q); assay: Differential scanning fluorometry (DSF) binding to purified hSTING HAQ allele; conditions: for binding relative to OH reference compound, in words / binding relative to naturally produced 2′3′-(G)(A), in words: Table 4 comment, HAQ allele hSTING
T3 construct: DNA encoding amino acids 140-379 (amino acid numbering corresponding to Swiss Prot Q86WV6); 6xHIS (N, cleaved yes); SUMO (N, cleaved yes); made in house; host or cells: Rosetta2 (DE3) E. coli
T3 sequence (Q86WV6 140-379 G230A/H232R/R293Q limits assumed): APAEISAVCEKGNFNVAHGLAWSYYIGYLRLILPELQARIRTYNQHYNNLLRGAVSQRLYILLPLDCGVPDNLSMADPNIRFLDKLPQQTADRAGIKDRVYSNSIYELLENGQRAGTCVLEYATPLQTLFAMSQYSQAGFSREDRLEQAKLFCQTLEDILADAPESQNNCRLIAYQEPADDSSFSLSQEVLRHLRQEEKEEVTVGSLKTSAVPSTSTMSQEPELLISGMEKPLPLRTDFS

[5] = system: MC38; assay: MC38 colon carcinoma mouse model, intra-tumoral injection; format: in vivo, C57BL/6 female mice; conditions: FIG. 15B, IT 10 or 100 μg, three injections, vs HBSS
Protocol: To assess the ability of the fluorinated derivative compounds to promote anti-tumor immunity in diverse murine tumor models, tumor cells were implanted (in 100 μL PBS) subcutaneously on the lower back of 6-8 week old C57BL/6 female mice. Treatments began when tumors reached a volume of approximately 100 mm^3, on approximately day 14 post tumor implantation (see table below for tumor type, number of cells, and day of IT injection). The CDN compounds were administered by IT injection (10 or 100 μg in a total volume of 40 μL HBSS), and repeated every three days for a total of three injections. The compounds 3′3′-RR-(2′F-A)(2′F-A) and 3′3′-RR-(2′F-G)(2′F-A) and control mice given vehicle only (40 μL HBSS) were dosed. Tumors were measured twice weekly.

[6] = molecular target: T2, hSTING(REF); assay: Differential scanning fluorometry (DSF) binding to purified hSTING REF allele; set-up: DNA encoding amino acids 140-379 (amino acid numbering corresponding to Swiss Prot Q86WV6); 6xHIS (N, cleaved yes); SUMO (N, cleaved yes); made in house; host or cells: Rosetta2 (DE3) E. coli; conditions: for Tm shift compared with non fluorine substituted compounds and 2′3′-(G)(A), in words: FIG. 2, hSTING (REF); for binding relative to OH reference compound, in words / binding relative to naturally produced 2′3′-(G)(A), in words: Table 4 comment, REF allele hSTING
Target sequence in this assay (Q86WV6 140-379): as the sequence (Q86WV6 140-379 G230A/H232R/R293Q limits assumed) above, with A91G, R93H, Q154R counted along it

[7] = listed as 3′3′-RR-(2′F-A)(2′F-A)
[8] = DSF, 1 mg/ml STING AA140-379, ligand 1 mM

Nc1nc2c(ncn2[C@@H]2O[C@@H]3CO[P@@](=O)(S)O[C@H]4[C@@H](F)[C@H](n5cnc6c(N)ncnc65)O[C@@H]4CO[P@@](=O)(S)O[C@H]3[C@H]2F)c(=O)[nH]1 (stereo in doubt) [Compound 14, 2-Amino-9-((2R,3R,3aR,5R,7aR,9R,10R,10aR,12R,14aR)-9-(6-amino-9H-purin-9-yl)-3,10-difluoro-5,12-dimercapto-5,12-dioxidooctahydro-2H,7H-difuro [3,2-d:3′,2′-j][1,3,7,9]tetraoxa[2,8]diphosphacyclododecin-2-yl)-1,9-dihydro-6H-purin-6-one]
relative normalized IFNβ expression, in words [1]: most potent inducer of type I interferon in STING^WT/WT hPBMCs | IFNβ level compared to the parent cGAMP compound ([1]; in the dose range tested): 10-100 fold | IFNβ luciferase reporter induction by hSTING(REF), in words [2]: strongly induced IFNβ reporter activity, to a level similar to the endogenous cellular ligand 2′3′-(G)(A) | IFNβ luciferase reporter induction by hSTING(WT), in words ([3]; listed as 3′3′-RR-(2′F-G)(2′F-A)): strongly induced IFNβ reporter activity by hSTING(WT); also recorded: more potently induced IFNβ reporter activity by hSTING(WT) than the compound 3′3′-(G)(A) | binding relative to OH reference compound, in words [4]: improved binding | binding relative to naturally produced 2′3′-(G)(A), in words [4]: improved binding | tumor volume, in words [5]: elicited complete tumor regression at all doses tested | Tm shift compared with non fluorine substituted compounds and 2′3′-(G)(A), in words [6]: increased Tm shift | binding relative to OH reference compound, in words [6]: improved binding | binding relative to naturally produced 2′3′-(G)(A), in words [6]: improved binding

Nc1ncnc2c1ncn2[C@@H]1O[C@@H]2CO[P@@](=O)(S)O[C@H]3[C@@H](F)[C@H](n4cnc5c(N)ncnc54)O[C@@H]3CO[P@@](=O)(S)O[C@H]2[C@H]1F [Compound 6, (2R,3R,3aR,5R,7aR,9R,10R,10aR,12R,14aR)-2,9-bis(6-amino-9H-purin-9-yl)-3,10-difluoro-5,12-dimercaptooctahydro-2H,7H-difuro[3,2-d:3′,2′-j][1,3,7,9]tetraoxa[2,8]diphosphacyclododecine 5,12-dioxide]
relative normalized IFNβ expression, in words [1, 7]: induced similar levels of IFNβ; also recorded: induced higher levels of IFNβ transcript when compared to the 3′3′-(A)(A) compound; also recorded: stimulated higher levels of IFNβ transcript by STING^WT/WT hPBMCs when compared to non-canonical 2′3′-(G)(A) | IFNβ luciferase reporter induction by hSTING(REF), in words [2]: strongly induced IFNβ reporter activity, to a level similar to the endogenous cellular ligand 2′3′-(G)(A) | IFNβ luciferase reporter induction by hSTING(WT), in words [3, 7]: induced higher levels of IFNβ reporter activity by hSTING(WT) than the non-fluorine substituted compounds; also recorded: stimulated higher levels of IFNβ reporter activity by hSTING(WT) when compared to the endogenous cellular ligand 2′3′-(G)(A) | hSTING Tm Shift HAQ [4, 8]: 32.4 °C | binding relative to OH reference compound, in words [4]: improved binding | binding relative to naturally produced 2′3′-(G)(A), in words [4]: improved binding | tumor volume, in words [5]: elicited complete tumor regression at all doses tested | hSTING Tm Shift REF [6, 8]: 9.1 °C | Tm shift compared with non fluorine substituted compounds and 2′3′-(G)(A), in words [6]: increased Tm shift | binding relative to OH reference compound, in words [6]: improved binding | binding relative to naturally produced 2′3′-(G)(A), in words [6]: improved binding
